US12383628B2 (priority 2016, dated 2025)
Square brackets hold non-standard residues; d marks the D form. Ends that are not written are not given here. Peptide text beside a SMILES is read from it. Phe(3-Br) = N[C@@H](Cc1cccc(Br)c1)C(=O)O; Phe(4-Br) = N[C@@H](Cc1ccc(Br)cc1)C(=O)O; Phe(3-I) = N[C@@H](Cc1cccc(I)c1)C(=O)O; 2Nal = N[C@@H](Cc1ccc2ccccc2c1)C(=O)O; Dmt = Cc1cc(O)cc(C)c1C[C@H](N)C(=O)O; β3hF = N[C@H](CC(=O)O)Cc1ccccc1; Cha = N[C@@H](CC1CCCCC1)C(=O)O; Phe∗ = not defined here; Trp∗ = not defined here

Assay: Peptide gelation (tilted tube / inverted vial test, minimum gelation concentration)
Assay type: physicochemical
Details: not given
Procedure: The peptide gelation occurred by dissolving the TFA salt of the hexapeptide (2 mg) in 100 μL of PBS solution (pH 7.4) or physiological saline solution (0.9% NaCl).
Both peptides 2 and 4 (Table 1) gave a transparent gel in the same conditions (PBS 10 mM at pH 7.4 with a minimum gelation concentration of 24 mM; 2% w/v). To evaluate the mechanical properties of these hydrogels in a more quantitative manner, rheological experiments were performed. The viscoelastic properties of the peptide hydrogels were measured by dynamic rheometry at 37° C. This technique allowed to measure the storage modulus G′ (corresponding to the material's stiffness or rigidity), loss modulus G″ (corresponding to the viscous properties of the material) and loss factor tan (o) (ratio of G″ over G′). According to the Winter-Chambon criterion, a material reaches gelation in rheological terms if the phase angle o gets frequency-independent (F. Chambon et al., 1987 and H. Winter et al., 1987).
The peptide gelation occurred by dissolving the TFA salt of the peptide in 100 μL of PBS solution or physiological saline solution (0.9% NaCl) (pH 7.4).
The peptide gelation occurs by dissolving the TFA salt of the hydrogelator (1 or 2 mg) in 100 μL of aqueous media, PBS solution (pH 7.4) or physiological saline solution (0.9% NaCl). After successive vortexing and sonication, the gel is left to rest overnight at room temperature.
The hydrogelation was realized under physiologically relevant conditions, namely via the addition of phosphate-buffered saline (PBS) or sterile physiological saline solution (0.9% NaCl). The needed amount of hydrogelator was weighed in an Eppendorf® and solubilized by the addition of the above solutions. After vortex and sonication steps, the resulting solution was left at room temperature until gelation occurred. The gelation was qualitatively verified by the inverted vial test (if no gravitational flow was visible the gelation was considered successful). It can be noticed that all peptide hydrogelators depicted formed gels in PBS and saline solution at a concentration of 1 to 2% w/v.

Compound | Biogel formation
SEQ ID NO: 56, modified by the inclusion of an ester as linker: biogel MOJ-02 modified by an ester linker (spacer) between the hydrogelator part and the biological active ingredient (Y[dR]FFQ[β3hF]FQFK-NH2; not fully specified (residue 9); also: ester linker between hydrogelator part and active ingredient, position not given here) | able to form a biogel spontaneously

Same assay, conditions: 2% w/v, PBS 10 mM, pH 7.4

Compound | Gelation behaviour
H-AEAQAK-NH2 [compound 8, H-Ala-Glu-Ala-Gln-Ala-Lys-NH2] | remained in solution
H-Leu-Glu-Leu-Gln-Leu-Lys-NH2 (H-LELQLK-NH2) [peptide 6] | remained in solution
NCCCC[C@H](NC(=O)[C@H](CC1CCCCC1)NC(=O)[C@H](CCC(N)=O)NC(=O)[C@H](CC1CCCCC1)NC(=O)[C@H](CCC(=O)O)NC(=O)[C@@H](N)CC1CCCCC1)C(N)=O [compound 9, H-Cha-Glu-Cha-Gln-Cha-Lys-NH2] (H-[Cha]E[Cha]Q[Cha]K-NH2) | formed gels
H-IEIQIK-NH2 [compound 5, H-Ile-Glu-Ile-Gln-Ile-Lys-NH2] | formed gels
H-VEVQVK-NH2 [compound 7, H-Val-Glu-Val-Gln-Val-Lys-NH2] | remained in solution
Ac-Phe-Glu-Phe*-Gln-Phe-Lys-NH2 [peptide 3] | macroscopic aggregation

Same assay, conditions: in PBS; '/' = no gel

Compound | Minimum gelation concentration (w/v % in PBS)
H-Phe-Glu-Trp*-Gln-Phe-Lys-NH2 (H-FE[Trp∗]QFK-NH2; not fully specified; reading uncertain) [compound 21] | 2 w/v %
H-DLys-DPhe-DAsn-DPhe*-DGlu-DPhe-NH2 (H-[dK][dF][dN]F[dE][dF]-NH2; not fully specified (residue 4)) [compound 22] | 2 w/v %
H-DLys-DPhe-DGlu-DPhe*-DGlu-DPhe-NH2 (H-[dK][dF][dE]F[dE][dF]-NH2; not fully specified (residue 4)) [compound 23] | 2 w/v %
NCCCC[C@H](NC(=O)[C@H](Cc1cccc(I)c1)NC(=O)[C@H](CCC(N)=O)NC(=O)[C@H](Cc1ccccc1)NC(=O)[C@H](CCC(N)=O)NC(=O)[C@@H](N)Cc1ccccc1)C(N)=O [compound 36, H-Phe-Gln-Phe-Gln-Phe(3I)-Lys-NH2] (H-FQFQ[Phe(3-I)]K-NH2) | 1-2 w/v %
H-Phe-Glu-Phe*-Lys-Phe-Ser-NH2 (H-FE[Phe∗]KFS-NH2; not fully specified; reading uncertain) [compound 20] | 1 w/v %
H-Lys-Phe-Gln-Phe*-Glu-Phe-OH (H-KFQ[Phe∗]EF-OH; not fully specified; reading uncertain) [compound 26] | 2 w/v %
H-DPhe-DGlu-DPhe*-DGln-DPhe-DLys-OH (H-[dF][dE]F[dQ][dF][dK]-OH; not fully specified (residue 3)) [compound 25] | 1 w/v %
H-Phe-Glu-Phe*-Gln-Trp-Lys-NH2 (H-FE[Phe∗]QWK-NH2; not fully specified; reading uncertain) [compound 15] | 2 w/v %
H-DPhe-DGlu-DPhe*-DGln-DPhe-DLys-NH2 (H-[dF][dE]F[dQ][dF][dK]-NH2; not fully specified (residue 3)) [compound 17] | 2 w/v %
NCCCC[C@H](NC(=O)[C@H](CC1CCCCC1)NC(=O)[C@H](CCC(N)=O)NC(=O)[C@H](CC1CCCCC1)NC(=O)[C@H](CCC(=O)O)NC(=O)[C@@H](N)CC1CCCCC1)C(N)=O [compound 9, H-Cha-Glu-Cha-Gln-Cha-Lys-NH2] (H-[Cha]E[Cha]Q[Cha]K-NH2) | 2 w/v %
H-IEIQIK-NH2 [compound 5, H-Ile-Glu-Ile-Gln-Ile-Lys-NH2] | 2 w/v %
NCCCC[C@H](NC(=O)[C@H](Cc1ccc2ccccc2c1)NC(=O)[C@H](CCC(N)=O)NC(=O)[C@H](Cc1ccc2ccccc2c1)NC(=O)[C@H](CCC(=O)O)NC(=O)[C@@H](N)Cc1ccc2ccccc2c1)C(N)=O [compound 13, H-(2-Nal)-Glu-(2-Nal)-Gln-(2-Nal)-Lys-NH2] (H-[2Nal]E[2Nal]Q[2Nal]K-NH2) | 2 w/v %
H-Trp-Glu-Phe*-Gln-Phe-Lys-NH2 (H-WE[Phe∗]QFK-NH2; not fully specified; reading uncertain) [compound 14] | 2 w/v %
H-DLys-DPhe-DGln-DPhe*-DGlu-DPhe-NH2 (H-[dK][dF][dQ]F[dE][dF]-NH2; not fully specified (residue 4)) [compound 19] | 2 w/v %
H-Phe-Glu-Phe*-Asn-Phe-Lys-NH2 (H-FE[Phe∗]NFK-NH2; not fully specified; reading uncertain) [compound 11] | 1 w/v %
NCCCC[C@H](NC(=O)[C@H](Cc1ccccc1)NC(=O)[C@H](CCC(N)=O)NC(=O)[C@H](Cc1cccc(Br)c1)NC(=O)[C@H](CCC(N)=O)NC(=O)[C@@H](N)Cc1ccccc1)C(N)=O [compound 34, H-Phe-Gln-Phe(3Br)-Gln-Phe-Lys-NH2] (H-FQ[Phe(3-Br)]QFK-NH2) | 1-2 w/v %
NCCCC[C@H](NC(=O)[C@H](Cc1cccc(I)c1)NC(=O)[C@H](CCC(N)=O)NC(=O)[C@H](Cc1cccc(I)c1)NC(=O)[C@H](CCC(N)=O)NC(=O)[C@@H](N)Cc1ccccc1)C(N)=O [compound 37, H-Phe-Gln-Phe(3I)-Gln-Phe(3I)-Lys-NH2] (H-FQ[Phe(3-I)]Q[Phe(3-I)]K-NH2) | 1-2 w/v %
NCCCC[C@H](NC(=O)[C@H](Cc1ccc(Br)cc1)NC(=O)[C@H](CCC(N)=O)NC(=O)[C@H](Cc1ccc(Br)cc1)NC(=O)[C@H](CCC(N)=O)NC(=O)[C@@H](N)Cc1ccc(Br)cc1)C(N)=O [compound 35, H-Phe(4Br)-Gln-Phe(4Br)-Gln-Phe(4Br)-Lys-NH2] (H-[Phe(4-Br)]Q[Phe(4-Br)]Q[Phe(4-Br)]K-NH2) | 1-2 w/v %
H-Phe-Glu-Phe*-Asn-Phe-Lys-OH (H-FE[Phe∗]NFK-OH; not fully specified; reading uncertain) [compound 10] | 1 w/v %
NCCCC[C@H](NC(=O)[C@H](Cc1cccc(Br)c1)NC(=O)[C@H](CCC(N)=O)NC(=O)[C@H](Cc1ccccc1)NC(=O)[C@H](CCC(N)=O)NC(=O)[C@@H](N)Cc1ccccc1)C(N)=O [compound 31, H-Phe-Gln-Phe-Gln-Phe(3Br)-Lys-NH2] (H-FQFQ[Phe(3-Br)]K-NH2) | 1-2 w/v %
NCCCC[C@H](NC(=O)[C@H](Cc1cccc(Br)c1)NC(=O)[C@H](CCC(N)=O)NC(=O)[C@H](Cc1cccc(Br)c1)NC(=O)[C@H](CCC(N)=O)NC(=O)[C@@H](N)Cc1ccccc1)C(N)=O [compound 32, H-Phe-Gln-Phe(3Br)-Gln-Phe(3Br)-Lys-NH2] (H-FQ[Phe(3-Br)]Q[Phe(3-Br)]K-NH2) | 1-2 w/v %

Assay: Stability and degradability of biogels in human plasma (Example 8)
Assay type: in vitro ADME
Details: human plasma, 37° C.
Procedure: After centrifugation at 14 000 rpm for 15 minutes, 100 μL supernatant was diluted with 100 μL milliQ water in the injection vial. Injection samples were vortexed for 5 seconds and were analyzed by HPLC. […] Calculations were performed using Microsoft® Office Professional 2010 Excel.

Compound | Extent of degradation
Cc1cc(O)cc(C)c1C[C@H](N)C(=O)N[C@H](CCCNC(=N)N)C(=O)N[C@@H](Cc1ccccc1)C(=O)N[C@@H](Cc1ccccc1)C(=O)N[C@@H](CCC(N)=O)C(=O)N[C@H](CC(=O)N[C@@H](Cc1ccccc1)C(=O)N[C@@H](CCC(N)=O)C(=O)N[C@@H](Cc1ccccc1)C(=O)N[C@@H](CCCCN)C(N)=O)Cc1ccccc1 [CM-137, Dmt-OArg-Phe-Phe-Gln-J3;s-homo-Phe-Phe-Gln-Phe*-Lys-NH2] (H-[Dmt][dR]FFQ[β3hF]FQFK-NH2; N-terminus assumed) | the degradation stops after the cleavage of the first Gin

Same assay, conditions: human, plasma; 37° C., in solution, 14 μM

Compound | half-life at 14 μM
Cc1cc(O)cc(C)c1C[C@H](N)C(=O)N[C@H](CCCCN)C(=O)N[C@@H](Cc1ccccc1)C(=O)N[C@@H](Cc1ccccc1)C(=O)N[C@@H](CCC(N)=O)C(=O)N[C@@H](Cc1ccccc1)C(=O)N[C@@H](CCC(N)=O)C(=O)N[C@@H](Cc1ccccc1)C(=O)N[C@@H](CCCCN)C(N)=O [CM-136, Dmt-OLy:s-Phe-Phe-Gln-Phe*-Gln-Phe*-Lys-NH2] (H-[Dmt][dK]FFQFQFK-NH2) | ~0.183 h
Cc1cc(O)cc(C)c1C[C@H](N)C(=O)N[C@H](CCCNC(=N)N)C(=O)N[C@@H](Cc1ccccc1)C(=O)N[C@@H](Cc1ccccc1)C(=O)N[C@@H](CCC(N)=O)C(=O)N[C@H](CC(=O)N[C@@H](Cc1ccccc1)C(=O)N[C@@H](CCC(N)=O)C(=O)N[C@@H](Cc1ccccc1)C(=O)N[C@@H](CCCCN)C(N)=O)Cc1ccccc1 [CM-137, Dmt-OArg-Phe-Phe-Gln-J3;s-homo-Phe-Phe-Gln-Phe*-Lys-NH2] (H-[Dmt][dR]FFQ[β3hF]FQFK-NH2; N-terminus assumed) | ~2.05 h
